From US12599672B2, “KRAS proteolysis targeting chimeras” (PAQ Therapeutics Inc., priority 2023, dated 2026)

What was measured:
Type in all cases: cell-based
KRAS G12D = molecular target: T1, KRAS G12D (Homo sapiens, UniProt P01116, G12D); assay: KRAS G12D HiBit assay; settings: AsPc-1-KRAS (G12D)-HiBit-KI cell, compound treatment for 24 hours, absolute DC50; class symbols
T1 construct: AsPc-1-KRAS (G12D)-HiBit-KI cell (Pharmaron); host or cells: AsPc-1-KRAS (G12D)-HiBit-KI cells (HiBiT knock-in at the endogenous KRAS locus)
T1 sequence (P01116 1-188 isoform P01116-2 G12D): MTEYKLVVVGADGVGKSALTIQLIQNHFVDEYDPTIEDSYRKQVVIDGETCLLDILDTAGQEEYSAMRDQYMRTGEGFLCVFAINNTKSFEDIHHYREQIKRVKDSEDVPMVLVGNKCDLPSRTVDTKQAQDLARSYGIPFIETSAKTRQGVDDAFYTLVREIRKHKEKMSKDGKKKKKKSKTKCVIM
Procedure, shortened: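 Cells were treated for 24 h with compounds in a 3-fold, 10-point dilution series from a 0.3 mM DMSO stock, then equilibrated 15 min at room temperature. KRAS G12D HiBiT levels were read by luminescence after lytic Nano-Glo HiBiT reagent with LgBiT; inhibition calculated relative to 0.1% DMSO high control.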

KRAS = molecular target: T2, KRAS (Homo sapiens, UniProt P01116); assay: KRASamp MSD assay; settings: KE39 (KRAS amplified) cells, treated with test compounds for 24 hr, MSD readout of KRAS degradation
T2 construct: endogenous in cells; host or cells: KE39 (KRAS amplified) cells
T2 sequence (P01116 1-188 isoform P01116-2): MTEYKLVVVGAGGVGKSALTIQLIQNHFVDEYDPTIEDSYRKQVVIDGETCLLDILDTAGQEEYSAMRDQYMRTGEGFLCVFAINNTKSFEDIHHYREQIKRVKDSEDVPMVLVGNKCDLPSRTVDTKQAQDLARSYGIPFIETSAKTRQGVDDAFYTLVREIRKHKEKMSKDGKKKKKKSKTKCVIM
Procedure, shortened: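 KRAS-amplified KE39 cells treated with compound for 24 hr, then lysed in RIPA buffer with protease/phosphatase inhibitors. KRAS protein measured by MSD sandwich immunoassay against a recombinant WT KRAS standard curve; DC50 derived from curve fitting of degradation.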

KRAS G12V = molecular target: T3, KRAS G12V (Homo sapiens, UniProt P01116, G12V); assay: KRAS G12V HiBit assay; settings: SW620-KRAS (G12V)-HiBit-KI cells, compound treatment for 24 hours, class symbols
T3 construct: SW620-KRAS (G12V)-HiBit-KI cell (Pharmaron); host or cells: SW620-KRAS (G12V)-HiBit-KI cells (HiBiT knock-in at the endogenous KRAS locus)
T3 sequence (P01116 1-188 isoform P01116-2 G12V): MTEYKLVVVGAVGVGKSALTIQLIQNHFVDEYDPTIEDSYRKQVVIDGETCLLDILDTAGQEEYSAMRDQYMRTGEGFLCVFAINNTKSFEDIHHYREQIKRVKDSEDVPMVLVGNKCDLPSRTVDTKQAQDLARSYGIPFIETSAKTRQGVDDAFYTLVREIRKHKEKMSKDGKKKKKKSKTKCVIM
Procedure, shortened: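 HiBiT-tagged KRAS G12V cells treated 24 h with compound in a 3-fold, 10-point series (0.3 mM DMSO stock); lytic HiBiT reagent with LgBiT added after 15 min room-temperature equilibration. Degradation calculated against 0.1% DMSO high control.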

| SMILES | DC50 (KRAS G12D) [nM] | DC50 (KRAS) [nM] | DC50 (KRAS G12V) [nM] |
| --- | --- | --- | --- |
| CCc1c(F)ccc2cc(O)cc(-c3ncc4c(N5CCC[C@@](C)(O)C5)nc(OC[C@@]56CCCN5[C@H](COC(=O)N5CCC7(CCC(CN8CCC(c9ccc%10c(c9)n(C)c(=O)n%10C9CCC(=O)NC9=O)CC8)CC7)C5)CC6)nc4c3F)c12 (stereo partly drawn) [Compound 457, ((3S,7aS)-7a-(((7-(8-ethyl-7-fluoro-3-hydroxynaphthalen-1-yl)-8-fluoro-4-((R)-3-hydroxy-3-methylpiperidin-1-yl)pyrido[4,3-d]pyrimidin-2-yl)oxy)methyl)hexahydro-1H-pyrrolizin-3-yl)methyl 8-((4-(1-(2,6-dioxopiperidin-3-yl)-3-methyl-2-oxo-2,3-dihydro-1H-benzo[d]imidazol-5-yl)piperidin-1-yl)methyl)-2-azaspiro[4.5]decane-2-carboxylate] | < 100 | < 1 | < 10 |
| CCc1c(F)ccc2cc(O)cc(-c3ncc4c(N5CCC[C@@](C)(O)C5)nc(OC[C@@]56CCCN5[C@H](COc5ccc(CN7CCC(c8ccc9c(c8)n(C)c(=O)n9C8CCC(=O)NC8=O)CC7)cc5)CC6)nc4c3F)c12 (stereo partly drawn) [Compound 458, 3-(5-(1-(4-(((3S,7aS)-7a-(((7-(8-ethyl-7-fluoro-3-hydroxynaphthalen-1-yl)-8-fluoro-4-((R)-3-hydroxy-3-methylpiperidin-1-yl)pyrido[4,3-d]pyrimidin-2-yl)oxy)methyl)hexahydro-1H-pyrrolizin-3-yl)methoxy)benzyl)piperidin-4-yl)-3-methyl-2-oxo-2,3-dihydro-1H-benzo[d]imidazol-1-yl)piperidine-2,6-dione] | < 100 | < 1 | 10 to 100 |
| CCc1c(F)ccc2cc(O)cc(-c3cc4nc(OC[C@@]56CCCN5[C@H](COC(=O)N5CCC7(CC5)CC(N5CCC(c8ccc9c(c8)n(C)c(=O)n9C8CCC(=O)NC8=O)CC5)C7)CC6)nc(N5CCC[C@@](C)(O)C5)c4cn3)c12 (stereo partly drawn) [Compound 461, ((3S,7aS)-7a-(((7-(8-ethyl-7-fluoro-3-hydroxynaphthalen-1-yl)-4-((R)-3-hydroxy-3-methylpiperidin-1-yl)pyrido[4,3-d]pyrimidin-2-yl)oxy)methyl)hexahydro-1H-pyrrolizin-3-yl)methyl 2-(4-(1-(2,6-dioxopiperidin-3-yl)-3-methyl-2-oxo-2,3-dihydro-1H-benzo[d]imidazol-5-yl)piperidin-1-yl)-7-azaspiro[3.5]nonane-7-carboxylate] | < 100 | < 1 | < 10 |
| CCc1c(F)ccc2cc(O)cc(-c3ncc4c(N5CCC[C@@](C)(O)C5)nc(OC[C@@]56CCCN5[C@H](COC(=O)N5CC7(CN(CC8CCN(c9ccc%10c(c9)n(C)c(=O)n%10C9CCC(=O)NC9=O)CC8)C7)C5)CC6)nc4c3F)c12 (stereo partly drawn) [Compound 462, ((3S,7aS)-7a-(((7-(8-ethyl-7-fluoro-3-hydroxynaphthalen-1-yl)-8-fluoro-4-((R)-3-hydroxy-3-methylpiperidin-1-yl)pyrido[4,3-d]pyrimidin-2-yl)oxy)methyl)hexahydro-1H-pyrrolizin-3-yl)methyl 6-((1-(1-(2,6-dioxopiperidin-3-yl)-3-methyl-2-oxo-2,3-dihydro-1H-benzo[d]imidazol-5-yl)piperidin-4-yl)methyl)-2,6-diazaspiro[3.3]heptane-2-carboxylate] | < 100 | 1 to 10 | < 10 |
| CCc1c(F)ccc2cc(O)cc(-c3ncc4c(N5CCC[C@@](C)(O)C5)nc(OC[C@@]56CCCN5[C@H](COC(=O)N5CCC7(CC5)CC(N5CC(c8ccc9c(c8)n(C)c(=O)n9C8CCC(=O)NC8=O)C5)C7)CC6)nc4c3F)c12 (stereo partly drawn) [Compound 464, ((3S,7aS)-7a-(((7-(8-ethyl-7-fluoro-3-hydroxynaphthalen-1-yl)-8-fluoro-4-((R)-3-hydroxy-3-methylpiperidin-1-yl)pyrido[4,3-d]pyrimidin-2-yl)oxy)methyl)hexahydro-1H-pyrrolizin-3-yl)methyl 2-(3-(1-(2,6-dioxopiperidin-3-yl)-3-methyl-2-oxo-2,3-dihydro-1H-benzo[d]imidazol-5-yl)azetidin-1-yl)-7-azaspiro[3.5]nonane-7-carboxylate] | < 100 | 1 to 10 | < 10 |
| CCc1c(F)ccc2cc(O)cc(-c3ncc4c(N5CCC[C@@](C)(O)C5)nc(OC[C@@]56CCCN5[C@H](COC(=O)N5CCC7(CCC(N8CCC(c9ccc%10c(c9)n(C)c(=O)n%10C9CCC(=O)NC9=O)CC8)CC7)CC5)CC6)nc4c3F)c12 (stereo partly drawn) [Compound 465, ((3S,7aS)-7a-(((7-(8-ethyl-7-fluoro-3-hydroxynaphthalen-1-yl)-8-fluoro-4-((R)-3-hydroxy-3-methylpiperidin-1-yl)pyrido[4,3-d]pyrimidin-2-yl)oxy)methyl)hexahydro-1H-pyrrolizin-3-yl)methyl 9-(4-(1-(2,6-dioxopiperidin-3-yl)-3-methyl-2-oxo-2,3-dihydro-1H-benzo[d]imidazol-5-yl)piperidin-1-yl)-3-azaspiro[5.5]undecane-3-carboxylate] | < 100 | < 1 | < 10 |
| CCc1c(F)ccc2cc(O)cc(-c3ncc4c(N5CCC[C@@](C)(O)C5)nc(OC[C@@]56CCCN5[C@H](COC(=O)N5CCC7(CCC(CN8CCC(c9ccc%10c(c9)n(C)c(=O)n%10C9CCC(=O)NC9=O)CC8)CC7)CC5)CC6)nc4c3F)c12 (stereo partly drawn) [Compound 466, ((3S,7aS)-7a-(((7-(8-ethyl-7-fluoro-3-hydroxynaphthalen-1-yl)-8-fluoro-4-((R)-3-hydroxy-3-methylpiperidin-1-yl)pyrido[4,3-d]pyrimidin-2-yl)oxy)methyl)hexahydro-1H-pyrrolizin-3-yl)methyl 9-((4-(1-(2,6-dioxopiperidin-3-yl)-3-methyl-2-oxo-2,3-dihydro-1H-benzo[d]imidazol-5-yl)piperidin-1-yl)methyl)-3-azaspiro[5.5]undecane-3-carboxylate] | < 100 | < 1 | < 10 |
| CCc1c(F)ccc2cc(O)cc(-c3ncc4c(N5CCC[C@@](C)(O)C5)nc(OC[C@@]56CCCN5[C@H](COC(=O)N5CC7(CCC(N8CCC(c9ccc%10c(c9)n(C)c(=O)n%10C9CCC(=O)NC9=O)CC8)CC7)C5)CC6)nc4c3F)c12 (stereo partly drawn) [Compound 467, ((3S,7aS)-7a-(((7-(8-ethyl-7-fluoro-3-hydroxynaphthalen-1-yl)-8-fluoro-4-((R)-3-hydroxy-3-methylpiperidin-1-yl)pyrido[4,3-d]pyrimidin-2-yl)oxy)methyl)hexahydro-1H-pyrrolizin-3-yl)methyl 7-(4-(1-(2,6-dioxopiperidin-3-yl)-3-methyl-2-oxo-2,3-dihydro-1H-benzo[d]imidazol-5-yl)piperidin-1-yl)-2-azaspiro[3.5]nonane-2-carboxylate] | < 100 | < 1 | < 10 |
| CCc1cccc2cc(O)cc(-c3ncc4c(N5CCC[C@@](C)(O)C5)nc(OC[C@@]56CCCN5[C@H](COC(=O)N5CCC7(CC5)CC(N5CCC(c8ccc9c(c8)n(C)c(=O)n9C8CCC(=O)NC8=O)CC5)C7)CC6)nc4c3F)c12 (stereo partly drawn) [Compound 468, ((3S,7aS)-7a-(((7-(8-ethyl-3-hydroxynaphthalen-1-yl)-8-fluoro-4-((R)-3-hydroxy-3-methylpiperidin-1-yl)pyrido[4,3-d]pyrimidin-2-yl)oxy)methyl)hexahydro-1H-pyrrolizin-3-yl)methyl 2-(4-(1-(2,6-dioxopiperidin-3-yl)-3-methyl-2-oxo-2,3-dihydro-1H-benzo[d]imidazol-5-yl)piperidin-1-yl)-7-azaspiro[3.5]nonane-7-carboxylate] | < 100 | < 1 | < 10 |
| CCc1c(F)ccc2cc(O)cc(-c3ncc4c(N5CCCC(F)(F)C5)nc(OC[C@@]56CCCN5[C@H](COC(=O)N5CC7(CC(N8CCC(c9ccc%10c(c9)n(C)c(=O)n%10C9CCC(=O)NC9=O)CC8)C7)C5)CC6)nc4c3F)c12 (stereo partly drawn) [Compound 469, ((3S,7aS)-7a-(((4-(3,3-difluoropiperidin-1-yl)-7-(8-ethyl-7-fluoro-3-hydroxynaphthalen-1-yl)-8-fluoropyrido[4,3-d]pyrimidin-2-yl)oxy)methyl)hexahydro-1H-pyrrolizin-3-yl)methyl 6-(4-(1-(2,6-dioxopiperidin-3-yl)-3-methyl-2-oxo-2,3-dihydro-1H-benzo[d]imidazol-5-yl)piperidin-1-yl)-2-azaspiro[3.3]heptane-2-carboxylate] | < 100 | < 1 | < 10 |
| CCc1c(F)ccc2cc(O)cc(-c3ncc4c(N5CCCC(F)(F)C5)nc(OC[C@@]56CCCN5[C@H](COC(=O)N5CCC7(CC5)CC(N5CCC(c8ccc9c(c8)n(C)c(=O)n9C8CCC(=O)NC8=O)CC5)C7)CC6)nc4c3F)c12 (stereo partly drawn) [Compound 470, ((3S,7aS)-7a-(((4-(3,3-difluoropiperidin-1-yl)-7-(8-ethyl-7-fluoro-3-hydroxynaphthalen-1-yl)-8-fluoropyrido[4,3-d]pyrimidin-2-yl)oxy)methyl)hexahydro-1H-pyrrolizin-3-yl)methyl 2-(4-(1-(2,6-dioxopiperidin-3-yl)-3-methyl-2-oxo-2,3-dihydro-1H-benzo[d]imidazol-5-yl)piperidin-1-yl)-7-azaspiro[3.5]nonane-7-carboxylate] | < 100 | < 1 | < 10 |
